Measurements: patent publication US20260373233A1, “ISLET AMYLOID POLYPEPTIDE ISOFORMS AND PEPTIDES AND METHODS OF USE” (The United States of America, as represented by the …, priority 2022, published 2026)
Peptide text beside a SMILES is read from it.

Experiments:
Aβ42 = target: T1, Aβ42 (Homo sapiens, UniProt P05067); experiment: Thioflavin T (ThT) Aβ42 fibrillation assay; assay type: biochemical; conditions: linear range of 70-120 min; 50 μM Aβ42 with 50 μM inhibitory peptide; 37 °C; p<0.0001
T1 construct: ThT fibrillation assay
T1 sequence (P05067 672-713): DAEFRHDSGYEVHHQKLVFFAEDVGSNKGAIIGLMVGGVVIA
Experimental: Thioflavin T in vitro assay for IAPP and Ab amyloid formation: Thioflavin T (ThT) was from Millipore-Sigma (Cat #T3516, Rockville, MD). […] Black 96 well microplates (Chimney Well) were from Greiner Bio-One (Frickenhausen, Germany). […] The final concentration the monomeric peptides was 1% DMSO and 25 μM ThT in Component A buffer (AnaSpec Manual of SensoLyte Thioflavin T Aggregation Kit, Cat #AS-72214).
P<0.05 was considered significant and data were represented as means±SEM. […] For ThT amyloid dye assay, area under a curve (AUC) was calculated using the trapezoidal rule and the data were analyzed using one-way ANOVA with Tukey's multiple comparison correction. The ratio of means (±SEM) was calculated by propagation of error formula.

[1] = ThT amyloid reporter binding assay of peptide alone
Experimental: (§1) Thioflavin T in vitro assay for IAPP and Ab amyloid formation: Thioflavin T (ThT) was from Millipore-Sigma (Cat #T3516, Rockville, MD). […] Black 96 well microplates (Chimney Well) were from Greiner Bio-One (Frickenhausen, Germany). C-terminal amidated IAPP25 and DNSP11 peptides were synthesized by GeneMed Synthesis Inc (San Antonio, TX). […] The final concentration […] 1% DMSO and 25 μM ThT in Component A buffer (AnaSpec Manual of SensoLyte Thioflavin T Aggregation Kit, Cat #AS-72214).
(§2) FIG. 10A is a representative experiment of three replicates showing IAPP37 aggregation dynamics with lag time of 90 min and inhibition by IAPP25 (derived from IAPP-γ) and DNSP11. […] ThT binding fluorescent intensity (F.I.) was transformed to area under curve (AUC) using the trapezoidal rule and the inhibitions were analyzed by one-way ANOVA with Tukey's multi-test correction.

IAPP37 = target: T2, IAPP37 (Homo sapiens, UniProt P10997); experiment: Thioflavin T (ThT) IAPP37 fibrillation assay; assay type: biochemical; conditions: 37 °C; for IAPP aggregation dynamics (AUC of ThT fluorescence) with inhibitor, % of IAPP37 aggregation: linear range of 90-160 min, 50 μM IAPP37 with 50 μM inhibitory peptide, p=0.003
T2 construct: ThT fibrillation assay
T2 sequence (P10997 34-70): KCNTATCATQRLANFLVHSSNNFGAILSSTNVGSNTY
Experimental: as §1
Statistical data analysis: GraphPad Prism v9 software was used for statistical analysis of RT-qPCR and SRM data and MetaboAnalyst v5.0 (metaboanalyst.ca/) was used for partial least squares-discriminant analysis (PLS-DA). P<0.05 was considered significant and data were represented as means±SEM. The normalized expression values of IAPP isoforms in TaqMan fold changes and ddPCR IAPP/GAPDH droplets, ELISA, and SRM quantitative values were analyzed with unpaired student t-test, Pearson correlation coefficient matrix. All statistical procedures for SRM biomarker discovery were carried out by using GraphPad Prism v9 software and MetaboAnalyst 5.0. Biomarker accuracies were calculated by area under the receiver operating characteristic curve (AUROC). For ThT amyloid dye assay, area under a curve (AUC) was calculated using the trapezoidal rule and the data were analyzed using one-way ANOVA with Tukey's multiple comparison correction. The ratio of means (±SEM) was calculated by propagation of error formula.
as §2

dopaminergic neurons = conditions: animal models of Parkinson's disease; amidated DNSP11; cited from earlier work

Aβ aggregation dynamics (AUC of ThT fluorescence) with inhibitor, % of Aβ42 aggregation (Aβ42) [%] | binding to ThT amyloid reporter [1] | IAPP aggregation dynamics (AUC of ThT fluorescence) with inhibitor, % of IAPP37 aggregation (IAPP37) [%] | lag time of IAPP37 aggregation (IAPP37; IAPP37, representative experiment of three replicates) [min] | Compound | protection of dopaminergic neurons (dopaminergic neurons)
62.9 | did not bind | 24.1 |  | CC(C)C[C@H](NC(=O)[C@H](CO)NC(=O)[C@H](CCCNC(=N)N)NC(=O)[C@H](CC(=O)O)NC(=O)[C@H](CCC(=O)O)NC(=O)[C@H](C)NC(=O)[C@@H]1CCCN1C(=O)[C@H](C)NC(=O)[C@H](CCC(=O)O)NC(=O)[C@@H]1CCCN1C(=O)[C@@H]1CCCN1)C(N)=O [DNSP11] (H-PPEAPAEDRSL-NH2) | protective to dopaminergic neurons
 |  |  | 90 | KCNTATCATQRLANFLVHSSNNFGAILSSTNVGSNTY [IAPP37, mature human IAPP, 37-AA peptide (AnaSpec Cat #AS-60254-1), reference compound] | 
50.6 | did not bind | 25.0 |  | CC[C@H](C)[C@H](NC(=O)[C@H](CCC(N)=O)NC(=O)[C@H](Cc1c[nH]c2ccccc12)NC(=O)[C@H](C)NC(=O)[C@H](CO)NC(=O)[C@H](CCCNC(=N)N)NC(=O)[C@H](CCC(N)=O)NC(=O)[C@@H](NC(=O)[C@H](Cc1c[nH]cn1)NC(=O)[C@@H]1CCCN1C(=O)[C@H](CC(C)C)NC(=O)[C@@H](NC(=O)[C@H](C)NC(=O)[C@H](CC(N)=O)NC(=O)CNC(=O)[C@H](CO)NC(=O)[C@H](CCCCN)NC(=O)[C@H](Cc1c[nH]c2ccccc12)NC(=O)[C@H](CCCNC(=N)N)NC(=O)[C@@H](NC(=O)[C@@H](NC(=O)[C@H](CCCCN)NC(=O)[C@H](CO)NC(=O)[C@@H](N)CCCCN)C(C)C)[C@@H](C)CC)[C@@H](C)O)C(C)C)C(=O)N[C@@H](Cc1ccccc1)C(N)=O [IAPP25] (H-KSKVIRWKSGNATLPHVQRSAWQIF-NH2) | 
